Consider 27 molecules from ChEMBL document CHEMBL5241056, “Engagement of phytoestrogens in breast cancer suppression: Structural classification and mechanistic approach” (Eur J Med Chem, 2021).

Converted amounts (≈) assume the structure as drawn.

In data set [1] the test system is MCF7. As to the kind of experiment: Antiproliferative activity against human MCF7 cells assessed as inhibition of cell growth incubated for 0 to 5 days by MTT assay. The data set is classed as functional, cell-based.
Data set [2] deals with MCF7. Description: Antiproliferative activity against human MCF7 cells assessed as inhibition of cell growth incubated for 6 days by SRB assay. Type of data set: functional, cell-based. As to conditions: MCF7, 144 h.
In data set [3] the test system is MDA-MB-468. Description: Antiproliferative activity against human MDA-MB-468 cells assessed as inhibition of cell growth by MTT assay. The data set is classed as functional, cell-based.
Data set [4] is described as follows: Cytotoxicity against human MCF-10A cells assessed as inhibition of cell growth by MTT assay. Type of data set: toxicity, cell-based.
Data set [5] has as its system MCF7. As to the kind of experiment: Antiproliferative activity against human MCF7 cells assessed as inhibition of cell growth incubated for 2 days by WST-1 assay. The data set is classed as functional, cell-based. To be noted: MCF7, 48 h.
The test system of data set [6] is MCF7. As to the kind of experiment: Inhibition of DNA synthesis in human MCF7 cells incubated for 4 days by BrdU incorporation assay. The data set is classed as functional, cell-based. To be noted: MCF7, 96 h.
Data set [7] can be described thus: Oral bioavailability in CD rat at 168 mg/kg administered daily for 14 days. The data set is classed as ADME, organism-based. To be noted: in vivo, time 14 day.
Data set [8] has as its system MCF7. Description: Antiproliferative activity against human MCF7 cells assessed as inhibition of cell growth incubated for 3 days by beta scintillation counting based [3H]-thymidine incorporation assay. The data set is classed as functional.
The target of data set [9] is T1, Steryl-sulfatase (Homo sapiens, UniProt P08842).
T1 sequence (P08842 whole entry): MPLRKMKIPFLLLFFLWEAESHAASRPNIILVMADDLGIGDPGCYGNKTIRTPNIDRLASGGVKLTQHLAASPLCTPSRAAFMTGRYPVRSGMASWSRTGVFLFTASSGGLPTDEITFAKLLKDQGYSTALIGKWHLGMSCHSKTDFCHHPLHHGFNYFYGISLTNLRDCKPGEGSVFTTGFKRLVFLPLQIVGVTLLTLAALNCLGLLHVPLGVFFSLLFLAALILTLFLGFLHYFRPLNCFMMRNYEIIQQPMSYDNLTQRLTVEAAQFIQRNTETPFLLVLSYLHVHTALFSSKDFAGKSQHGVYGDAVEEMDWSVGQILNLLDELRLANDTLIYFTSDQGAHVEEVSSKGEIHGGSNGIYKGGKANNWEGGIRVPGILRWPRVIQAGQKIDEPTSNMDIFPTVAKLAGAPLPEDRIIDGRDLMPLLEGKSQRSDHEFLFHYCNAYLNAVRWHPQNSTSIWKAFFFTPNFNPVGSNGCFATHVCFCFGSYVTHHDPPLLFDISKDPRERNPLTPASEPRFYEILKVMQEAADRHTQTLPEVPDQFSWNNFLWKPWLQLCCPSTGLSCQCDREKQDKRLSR
Description: Inhibition of estrone sulfatase in human MCF7 cell microsomes. The arrangement: species or system Microsome.

The target in data set [10] is T2, Steryl-sulfatase (Rattus norvegicus, UniProt P15589).
T2 sequence (P15589 whole entry): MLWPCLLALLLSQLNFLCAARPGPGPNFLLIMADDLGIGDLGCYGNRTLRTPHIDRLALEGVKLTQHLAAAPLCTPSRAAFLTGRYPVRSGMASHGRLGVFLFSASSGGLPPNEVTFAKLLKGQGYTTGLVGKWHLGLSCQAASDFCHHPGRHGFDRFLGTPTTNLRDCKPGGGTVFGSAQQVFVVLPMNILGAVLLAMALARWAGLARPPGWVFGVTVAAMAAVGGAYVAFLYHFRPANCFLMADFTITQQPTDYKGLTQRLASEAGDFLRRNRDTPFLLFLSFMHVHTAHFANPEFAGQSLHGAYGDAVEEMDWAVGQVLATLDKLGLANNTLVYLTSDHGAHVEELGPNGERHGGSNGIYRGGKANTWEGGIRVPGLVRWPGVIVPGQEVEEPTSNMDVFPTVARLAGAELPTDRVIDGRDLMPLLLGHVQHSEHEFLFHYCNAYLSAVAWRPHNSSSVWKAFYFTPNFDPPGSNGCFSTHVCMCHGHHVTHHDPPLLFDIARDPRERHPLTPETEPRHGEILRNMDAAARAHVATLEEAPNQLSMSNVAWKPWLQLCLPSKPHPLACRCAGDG
As to the kind of experiment: Inhibition of estrone sulfatase in homogeneous rat mammary tumors. The data set is classed as tissue-based, Tumor.

Data set [11] is described as follows: Oral bioavailability in CD rat at 50 mg/kg administered daily for 14 days. As to conditions: in vivo, time 14 day. Type of data set: ADME, organism-based.
The subject of data set [12] is MCF7. Description: Antiproliferative activity against human MCF7 cells assessed as inhibition of cell growth incubated for 2 days by SRB assay. As to conditions: MCF7, 48 h. The data set is classed as functional, cell-based.
The subject of data set [13] is MCF7. As to the kind of experiment: Antiproliferative activity against human MCF7 cells assessed as inhibition of cell growth incubated for 4 days by SRB assay. Type of data set: functional, cell-based. As to conditions: MCF7, 96 h.
The target in data set [14] is Sulfotransferase 1A1 (Rattus norvegicus, UniProt P17988). As to the kind of experiment: Inhibition of rat liver SULT1A1-mediated oestradiol sulfonation incubated for 20 mins.
In data set [15] the target is T3, Sulfotransferase 2A1 (Rattus norvegicus, UniProt P15709).
T3 sequence (P15709 whole entry): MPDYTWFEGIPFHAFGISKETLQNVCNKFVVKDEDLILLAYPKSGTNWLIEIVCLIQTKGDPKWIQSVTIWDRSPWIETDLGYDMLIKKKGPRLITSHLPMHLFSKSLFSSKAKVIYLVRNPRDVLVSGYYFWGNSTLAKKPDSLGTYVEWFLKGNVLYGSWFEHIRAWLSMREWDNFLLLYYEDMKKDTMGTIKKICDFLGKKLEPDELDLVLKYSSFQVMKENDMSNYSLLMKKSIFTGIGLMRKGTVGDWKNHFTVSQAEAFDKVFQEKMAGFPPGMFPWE
Description: Inhibition of rat SULT2A1-mediated dehydroepiandrosterone sulfonation incubated for 20 mins.

The nature of data set [16]: Cytotoxicity against human MCF-10A cells assessed as inhibition of cell growth incubated for 24 to 96 hrs by MTT assay. The data set is classed as toxicity, cell-based.
Data set [17] concerns MDA-MB-231. Description: Antiproliferative activity against human MDA-MB-231 cells assessed as inhibition of cell growth incubated for 24 to 96 hrs by MTT assay. Type of data set: functional, cell-based.
For data set [18], the target named is T4, Estrogen receptor (Bos taurus, UniProt P49884).
T4 sequence (P49884 whole entry): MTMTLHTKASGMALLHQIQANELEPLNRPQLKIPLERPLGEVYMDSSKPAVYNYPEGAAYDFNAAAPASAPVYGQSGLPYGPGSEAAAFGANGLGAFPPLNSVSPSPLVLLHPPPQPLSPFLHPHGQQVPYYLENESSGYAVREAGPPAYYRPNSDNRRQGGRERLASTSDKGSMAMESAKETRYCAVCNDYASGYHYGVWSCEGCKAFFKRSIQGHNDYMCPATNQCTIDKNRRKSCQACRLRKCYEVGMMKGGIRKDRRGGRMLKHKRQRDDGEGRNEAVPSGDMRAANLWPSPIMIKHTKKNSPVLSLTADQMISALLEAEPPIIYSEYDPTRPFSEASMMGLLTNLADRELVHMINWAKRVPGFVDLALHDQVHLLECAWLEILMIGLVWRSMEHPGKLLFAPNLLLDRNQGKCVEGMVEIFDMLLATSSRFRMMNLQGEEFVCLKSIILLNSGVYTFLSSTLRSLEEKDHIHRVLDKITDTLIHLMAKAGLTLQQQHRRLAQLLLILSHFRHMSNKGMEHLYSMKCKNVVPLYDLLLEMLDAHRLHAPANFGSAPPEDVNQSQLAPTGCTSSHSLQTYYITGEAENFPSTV
As to the kind of experiment: Displacement of [3H]-17beta-estradiol from bovine uterine estrogen receptor by competitive binding assay.

Sulfotransferase 1A1, sequence (P17988 whole entry): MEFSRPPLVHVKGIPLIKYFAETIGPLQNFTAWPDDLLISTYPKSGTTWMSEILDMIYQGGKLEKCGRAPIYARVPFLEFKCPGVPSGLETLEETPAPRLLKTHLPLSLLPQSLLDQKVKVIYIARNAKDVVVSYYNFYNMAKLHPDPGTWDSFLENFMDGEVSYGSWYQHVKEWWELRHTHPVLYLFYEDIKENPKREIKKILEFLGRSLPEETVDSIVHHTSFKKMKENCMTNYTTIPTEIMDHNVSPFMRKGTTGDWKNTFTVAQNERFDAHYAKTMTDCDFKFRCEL

Consider `O=c1oc2cc(O)ccc2c2oc3cc(O)ccc3c12` [COUMESTROL], for which the IC50 in [1] amounted to 50 µM; in data set [2], 0.04 µM. Consider `COc1cc(O)c2c(=O)cc(-c3ccc(O)cc3)oc2c1` [GENKWANIN], for which the figures for the IC50 in [3] and in data set [4] were 1.6 µM and 75 µM, respectively. In the case of `O=c1cc(-c2ccc(O)c(O)c2)oc2cc(O)cc(O)c12` [LUTEOLIN], the IC50 in [2] is 5 µM. For the molecule `COc1ccc(-c2coc3cc(O)cc(O)c3c2=O)cc1` [BIOCHANIN], the IC50 came to 10 µM in [2], 40 µg/mL (≈ 141 µM) in data set [5] and 40 µg/mL (≈ 141 µM) in data set [6]. In the case of `Oc1ccc(C2COc3cc(O)ccc3C2)cc1` (centres undefined), the IC50 in data set [2] was determined as 1 µM.

As to `O=C(O)[C@H]1O[C@@H](Oc2cc(O)c3c(=O)cc(-c4ccc(O)cc4)oc3c2)[C@H](O)[C@@H](O)[C@@H]1O`, the IC50 was determined as 13 µM in data set [3] and 42 µM in [4]. Regarding `COc1cc(/C=C/c2ccc(O)cc2)cc(OC)c1` [PTEROSTILBENE], in data set [7], the bioavailability turned out to be 80%. Take `O=c1c(O)c(-c2ccccc2)oc2cc(O)cc(O)c12` [GALANGIN]: the concentration for half-maximal inhibition (IC50) in [8] was found to be 4.2 µg/mL (≈ 15.5 µM). Consider `C[C@H]1[C@H](C)CC[C@]2(C(=O)O)CC[C@]3(C)C(=CC[C@@H]4[C@@]5(C)CC[C@H](O)C(C)(C)[C@@H]5CC[C@]43C)[C@H]12` [URSOLIC ACID], for which the results for the IC50 in data set [9] and in [10] were 0.263 µM and 0.131 µM, respectively. In turn, `Oc1ccc(/C=C/c2cc(O)cc(O)c2)cc1` [RESVERATROL] registered a bioavailability in data set [11] of 20%. In the case of `COc1cc2c(c(O)c1C(=O)/C=C/c1ccc(O)cc1)C=CC(C)(C)O2` [XANTHOHUMOL C], the results for the IC50 in data set [12] and in data set [13] were 15.7 µM and 6.87 µM, respectively. Regarding `C#C[C@]1(O)CC[C@H]2[C@@H]3CCc4cc(OC)ccc4[C@H]3CC[C@@]21C` [MESTRANOL], the IC50 in data set [2] was 0.04 µM. `COc1ccc(-c2cc(=O)c3c(OC)c(OC)c(OC)cc3o2)cc1OC` [SINENSETIN]: the IC50 in data set [3] was 0.2 µM; in [4] it was 65 µM. Regarding `O=c1c(O)c(-c2ccc(O)cc2)oc2cc(O)cc(O)c12` [KAEMPFEROL], the IC50 came out at 0.29 µM in [14], 50 µM in data set [2] and 34 µM in [15]. Turning to `O=c1cc(-c2ccccc2)oc2ccccc12` [FLAVONE], the IC50 in [2] came out at 0.3 µM. On the same count and under the same terms, to `O=C1C[C@@H](c2ccc(O)cc2)Oc2cc(O)cc(O)c21` [NARINGENIN] belongs 0.3 µM. In the case of `O=c1c(-c2ccc(O)cc2)coc2cc(O)ccc12` [DAIDZEIN], the 50% inhibitory concentration (IC50) in data set [14] is 0.29 µM; in data set [15], 34 µM.

For the molecule `O=C(/C=C/c1ccc(O)cc1)c1ccc(O)cc1O` [ISOLIQUIRITIGENIN], the IC50 in data set [16] and in [17] was 25 µM in each case.

In the case of `O=C(CCc1ccc(O)cc1)c1c(O)cc(O)cc1O` [PHLORETIN], the IC50 in data set [2] is 7 µM.

On to `COc1cc(O)c(CC=C(C)C)c2c1C(=O)CC(c1ccc(O)cc1)O2` (centres undefined) [ISOXANTHOHUMOL], for which the IC50 in data set [12] stood at 15.3 µM; in data set [13], 4.69 µM. `O=c1c(-c2ccc(O)cc2)coc2cc(O)cc(O)c12` [GENISTEIN]: the IC50 stood at 0.29 µM in data set [14] and 34 µM in data set [15]. On to `O=c1cc(-c2ccccc2)oc2cc(O)c(O)c(O)c12` [BAICALEIN], for which the IC50 in data set [8] stood at 5.3 µg/mL (≈ 19.6 µM). Regarding `COc1cc(O)c(CC=C(C)C)c(O)c1C(=O)/C=C/c1ccc(O)cc1` [XANTHOHUMOL], the IC50 worked out at 13.3 µM in data set [12] and 3.47 µM in data set [13]. For the molecule `O=c1c(O)c(-c2ccc(O)c(O)c2)oc2cc(O)cc(O)c12` [QUERCETIN], the IC50 is 0.29 µM in data set [14], 5 µM in data set [2] and 34 µM in data set [15]. In data set [18], `C=C[C@H](/C=C\c1ccc(O)cc1)c1ccc(O)cc1` [NYASOL] yielded an IC50 of 0.4 µM. `C=C[C@@H](/C=C\c1ccc(O)cc1)c1ccc(O)cc1` yielded an IC50 in data set [18] of 0.06 µM. Regarding `O=c1cc(-c2ccc(O)cc2)oc2cc(O)cc(O)c12` [APIGENIN], in data set [2], the IC50 was found to be 1 µM.
